Type in all cases: functional
The test system of experiment [1] is Pseudomonas aeruginosa. Nature of the experiment: Antibacterial activity against Pseudomonas aeruginosa VW1633 clinical isolate after 16 to 20 hrs by microdilution assay.
Experiment [2] relates to Pseudomonas aeruginosa. Put plainly: Antibacterial activity against Pseudomonas aeruginosa LES431 clinical isolate after 16 to 20 hrs by microdilution assay. In general terms: Dilution methods test growth across graded concentrations, often in twofold steps.
Experiment [3] has as its system Pseudomonas aeruginosa. Nature of the experiment: Antibacterial activity against Pseudomonas aeruginosa KD491 clinical isolate after 16 to 20 hrs by microdilution assay.

Molecules are shown by their SMILES. ≈ marks a conversion by molar mass, not a printed value. Peptide text beside a SMILES is read from it. * marks the point of attachment. DEAC = CCN(CC)c1ccc2cc(C(=O)*)c(=O)oc2c1; Myristoyl = CCCCCCCCCCCCCC(=O)*; Lauroyl = CCCCCCCCCCCC(=O)*; Decanoyl = CCCCCCCCCC(=O)*; Octanoyl = CCCCCCCC(=O)*; Hexanoyl = CCCCCC(=O)*

Turning to `CCCCCCCCCCCC(=O)NCCCC[C@H](NC(=O)[C@H](Cc1c[nH]c2ccccc12)NC(=O)[C@H](CCCNC(=N)N)NC(=O)[C@H](Cc1c[nH]c2ccccc12)NC(=O)[C@H](CCCNC(=N)N)NC(=O)[C@H](Cc1c[nH]c2ccccc12)NC(=O)[C@@H](N)CCCNC(=N)N)C(=O)O` (H-RWRWRWK(Lauroyl)-OH), the values for the MIC in the experiment with Pseudomonas aeruginosa [1], against Pseudomonas aeruginosa [2] and against Pseudomonas aeruginosa [3] were 32 µg/mL (≈ 23.6 µM), 64 µg/mL (≈ 47.2 µM) and over 128 µg/mL, respectively.
As for `CCCCCCCCCCCC(=O)N[C@@H](CCCNC(=N)N)C(=O)N[C@@H](Cc1c[nH]c2ccccc12)C(=O)N[C@@H](CCCNC(=N)N)C(=O)N[C@@H](Cc1c[nH]c2ccccc12)C(=O)N[C@@H](CCCNC(=N)N)C(=O)N[C@@H](Cc1c[nH]c2ccccc12)C(=O)N[C@@H](CCCCN)C(=O)O` (Lauroyl-RWRWRWK-OH), the minimal inhibitory concentration (MIC) in the experiment on Pseudomonas aeruginosa [1] is over 128 µg/mL; in the experiment on Pseudomonas aeruginosa [2], 64 µg/mL (≈ 47.2 µM); against Pseudomonas aeruginosa [3] it was over 128 µg/mL.
As for `CCN(CC)c1ccc2cc(C(=O)NCCCC[C@H](NC(=O)[C@H](Cc3c[nH]c4ccccc34)NC(=O)[C@H](CCCNC(=N)N)NC(=O)[C@H](Cc3c[nH]c4ccccc34)NC(=O)[C@H](CCCNC(=N)N)NC(=O)[C@H](Cc3c[nH]c4ccccc34)NC(=O)[C@@H](N)CCCNC(=N)N)C(=O)O)c(=O)oc2c1` (H-RWRWRWK(DEAC)-OH), the MIC was 64 µg/mL (≈ 45.2 µM) against Pseudomonas aeruginosa [1], over 128 µg/mL in the experiment with Pseudomonas aeruginosa [2] and 64 µg/mL (≈ 45.2 µM) against Pseudomonas aeruginosa [3].
With `CCCCCC(=O)N[C@@H](CCCNC(=N)N)C(=O)N[C@@H](Cc1c[nH]c2ccccc12)C(=O)N[C@@H](CCCNC(=N)N)C(=O)N[C@@H](Cc1c[nH]c2ccccc12)C(=O)N[C@@H](CCCNC(=N)N)C(=O)N[C@@H](Cc1c[nH]c2ccccc12)C(=O)N[C@@H](CCCCN)C(=O)O` (Hexanoyl-RWRWRWK-OH), the MIC against Pseudomonas aeruginosa [1] is 32 µg/mL (≈ 25.2 µM); in the experiment on Pseudomonas aeruginosa [2] it was over 128 µg/mL; against Pseudomonas aeruginosa [3] it was 64 µg/mL (≈ 50.3 µM).
As for `CCCCCCCCCC(=O)N[C@@H](CCCNC(=N)N)C(=O)N[C@@H](Cc1c[nH]c2ccccc12)C(=O)N[C@@H](CCCNC(=N)N)C(=O)N[C@@H](Cc1c[nH]c2ccccc12)C(=O)N[C@@H](CCCNC(=N)N)C(=O)N[C@@H](Cc1c[nH]c2ccccc12)C(=O)N[C@@H](CCCCN)C(=O)O` (Decanoyl-RWRWRWK-OH), the MIC in the experiment with Pseudomonas aeruginosa [1] stood at 64 µg/mL (≈ 48.2 µM); in the experiment on Pseudomonas aeruginosa [2] it was 32 µg/mL (≈ 24.1 µM); against Pseudomonas aeruginosa [3], 32 µg/mL (≈ 24.1 µM).
As to `CCCCCCCC(=O)NCCCC[C@H](NC(=O)[C@H](Cc1c[nH]c2ccccc12)NC(=O)[C@H](CCCNC(=N)N)NC(=O)[C@H](Cc1c[nH]c2ccccc12)NC(=O)[C@H](CCCNC(=N)N)NC(=O)[C@H](Cc1c[nH]c2ccccc12)NC(=O)[C@@H](N)CCCNC(=N)N)C(=O)O` (H-RWRWRWK(Octanoyl)-OH), the results for the MIC against Pseudomonas aeruginosa [1], in the experiment on Pseudomonas aeruginosa [2] and with Pseudomonas aeruginosa [3] were 16 µg/mL (≈ 12.3 µM), 128 µg/mL (≈ 98.5 µM) and 16 µg/mL (≈ 12.3 µM), respectively.
With `CCCCCCCCCCCCCC(=O)NCCCC[C@H](NC(=O)[C@H](Cc1c[nH]c2ccccc12)NC(=O)[C@H](CCCNC(=N)N)NC(=O)[C@H](Cc1c[nH]c2ccccc12)NC(=O)[C@H](CCCNC(=N)N)NC(=O)[C@H](Cc1c[nH]c2ccccc12)NC(=O)[C@@H](N)CCCNC(=N)N)C(=O)O` (H-RWRWRWK(Myristoyl)-OH), the MIC in the experiment on Pseudomonas aeruginosa [1] is over 128 µg/mL; against Pseudomonas aeruginosa [2] it was 128 µg/mL (≈ 92.5 µM); in the experiment on Pseudomonas aeruginosa [3], over 128 µg/mL.
On to `CCCCCC(=O)NCCCC[C@H](NC(=O)[C@H](Cc1c[nH]c2ccccc12)NC(=O)[C@H](CCCNC(=N)N)NC(=O)[C@H](Cc1c[nH]c2ccccc12)NC(=O)[C@H](CCCNC(=N)N)NC(=O)[C@H](Cc1c[nH]c2ccccc12)NC(=O)[C@@H](N)CCCNC(=N)N)C(=O)O` (H-RWRWRWK(Hexanoyl)-OH), for which the results for the MIC in the experiment on Pseudomonas aeruginosa [1], against Pseudomonas aeruginosa [2] and against Pseudomonas aeruginosa [3] were 16 µg/mL (≈ 12.6 µM), over 128 µg/mL and 32 µg/mL (≈ 25.2 µM), respectively.
As for `CCCCCCCCCCCCCC(=O)N[C@@H](CCCNC(=N)N)C(=O)N[C@@H](Cc1c[nH]c2ccccc12)C(=O)N[C@@H](CCCNC(=N)N)C(=O)N[C@@H](Cc1c[nH]c2ccccc12)C(=O)N[C@@H](CCCNC(=N)N)C(=O)N[C@@H](Cc1c[nH]c2ccccc12)C(=O)N[C@@H](CCCCN)C(=O)O` (Myristoyl-RWRWRWK-OH), the minimal inhibitory concentration (MIC) in the experiment with Pseudomonas aeruginosa [1], against Pseudomonas aeruginosa [2] and against Pseudomonas aeruginosa [3] was over 128 µg/mL each time.

As usually defined, the MIC is the smallest concentration in the dilution series that meets the test's criterion for growth inhibition. Read a low MIC as a more susceptible organism.
